Where two headings read alike, the source gives them in different places.

The target in experiment [1] is T1, human 11β-HSD2 (Homo sapiens, UniProt P80365).
T1 construct: expressed in transfected cells
T1 sequence (P80365 1-405): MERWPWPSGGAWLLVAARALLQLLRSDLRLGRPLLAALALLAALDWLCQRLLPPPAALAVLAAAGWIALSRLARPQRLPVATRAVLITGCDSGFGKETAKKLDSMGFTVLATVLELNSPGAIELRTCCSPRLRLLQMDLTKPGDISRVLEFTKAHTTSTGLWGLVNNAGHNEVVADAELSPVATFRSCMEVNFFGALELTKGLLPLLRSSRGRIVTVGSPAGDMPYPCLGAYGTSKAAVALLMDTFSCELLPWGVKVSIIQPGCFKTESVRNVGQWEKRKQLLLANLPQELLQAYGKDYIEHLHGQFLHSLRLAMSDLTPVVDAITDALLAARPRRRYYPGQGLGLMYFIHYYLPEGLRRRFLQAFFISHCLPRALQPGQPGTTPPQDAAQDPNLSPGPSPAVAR
The experiment can be described thus: 11β-HSD2 oxidase activity (cortisol to cortisone) in lysates of stably transfected HEK-293 cells. Type of experiment: biochemical. Particulars: for remaining activity at 20 µM: 20 μM compound, 25 nM cortisol, HEK-293 cell lysates, read-out: 11β-HSD2 % of control; for IC50: cell lysates, 7 inhibitor concentrations at factor 2 intervals. The protocol:
(§1) Cells were grown in 10 cm dishes to 80% confluence and incubated for 16 h in steroid-free medium (charcoal-treated fetal calf serum (FCS) from HyClone, Logan, Utah). Cells were rinsed once with phosphate-buffered saline (PBS), detached and centrifuged for 3 min at 150×g. The supernatant was removed and the cell pellet quick-frozen in a dry-ice ethanol bath. At the day of experiment, cell pellets were resuspended in buffer TS2 (100 mM NaCl, 1 mM EGTA, 1 mM EDTA, 1 mM MgCl2, 250 mM sucrose, 20 mM Tris-HCl, pH 7.4), sonicated and activities determined immediately. The rate of conversion of cortisol to cortisone or the reverse reaction was determined in 96-well optical PCR reaction plates (Applied Biosystems, Foster City, Calif.) in a final volume of 22 μl, and the tubes were capped during the reaction to avoid evaporation.
Reactions were initiated by simultaneously adding 10 μl of cell lysate and 12 μl of TS2 buffer containing the appropriate concentration of the inhibitory compound to be tested, NAD^+, 30 nCi of [1,2,6,7-^3H]-cortisol and unlabeled cortisol. […] Stock solutions of the inhibitors in methanol or DMSO were diluted in TS2 buffer to yield the appropriate concentrations, whereby the concentration of methanol or DMSO in the reactions were kept below 0.1%. Control reactions with or without 0.1% of the solvent were performed. Incubation was at 37° C. for 10 min with shaking, reactions were terminated by adding 10 μl of stop solution containing 2 mM of unlabeled cortisol and cortisone dissolved in methanol. The conversion of radiolabeled cortisol was determined by separation of cortisol and cortisone using TLC and a solvent system of 9:1 (v/v) chloroform:methanol, followed by scintillation counting.
(§2) Enzyme kinetics were analyzed by non-linear regression using Data Analysis Toolbox (MDL Information Systems Inc.) assuming first-order rate kinetics. Data represent mean ±SD of four to five independent experiments.
(§3) Assay with 20 μM of the corresponding compound in the reaction mixture, added simultaneously with the substrate:
(§4) Determination of IC50 values, using 7 different inhibitor concentrations at factor 2 intervals: […]

Experiment [2] has as its target T2, human 11β-HSD1 (Homo sapiens, UniProt P28845).
T2 construct: expressed in transfected cells
The experiment is described as follows: 11β-HSD1 reductase activity (cortisone to cortisol) in lysates of stably transfected HEK-293 cells. Type of experiment: biochemical. The conditions noted are these: for remaining activity at 20 µM: 20 μM compound, 100 nM cortisone, HEK-293 cell lysates, read-out: 11β-HSD1 % of control. The method, then:
as §1
Reactions were initiated simultaneously by adding 10 μl of cell lysate and 12 μl of TS2 buffer containing the appropriate concentration of the inhibitory compound to be tested, NADPH, 30 nCi of [1,2,6,7-^3H]-cortisone and unlabeled cortisone, whereby final concentrations were 400 μM NADPH and 100 nM cortisone. Activities were determined immediately after cell disruption by measuring the conversion of radiolabeled cortisone to cortisol for 10 min.
as §2, §3, §4

A further experiment concerns the target T3, 17β-HSD2 (Homo sapiens, UniProt P37059).
T3 sequence (P37059 1-387): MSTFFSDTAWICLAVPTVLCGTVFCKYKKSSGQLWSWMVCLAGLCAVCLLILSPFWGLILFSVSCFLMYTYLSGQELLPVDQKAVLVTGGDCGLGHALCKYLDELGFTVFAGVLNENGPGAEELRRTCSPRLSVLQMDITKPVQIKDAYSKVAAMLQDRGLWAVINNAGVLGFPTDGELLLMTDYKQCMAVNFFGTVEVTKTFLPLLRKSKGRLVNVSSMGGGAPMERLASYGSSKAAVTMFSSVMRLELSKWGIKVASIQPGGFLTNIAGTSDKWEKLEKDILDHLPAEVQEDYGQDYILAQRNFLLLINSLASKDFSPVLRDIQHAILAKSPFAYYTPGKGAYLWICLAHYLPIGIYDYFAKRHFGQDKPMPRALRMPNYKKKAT
The experiment can be described thus: Inhibition of 17β-HSD2. The format is biochemical.

Another experiment concerns the target T4, 17β-HSD1 (Homo sapiens, UniProt P14061).
T4 sequence (P14061 1-328): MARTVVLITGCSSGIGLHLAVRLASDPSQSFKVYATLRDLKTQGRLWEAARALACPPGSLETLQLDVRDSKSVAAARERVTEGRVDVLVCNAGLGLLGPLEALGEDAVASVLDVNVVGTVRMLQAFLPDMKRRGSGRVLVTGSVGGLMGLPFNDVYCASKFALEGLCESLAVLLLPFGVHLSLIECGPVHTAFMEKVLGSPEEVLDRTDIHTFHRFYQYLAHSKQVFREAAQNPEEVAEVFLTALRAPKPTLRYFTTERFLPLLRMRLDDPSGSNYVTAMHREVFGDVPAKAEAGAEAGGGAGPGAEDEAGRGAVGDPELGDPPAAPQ
The experiment can be described thus: Inhibition of 17β-HSD1. The format is biochemical.

The target of experiment [3] is T2, human 11β-HSD1. The experiment can be described thus: 11β-HSD1 activity in intact transfected HEK-293 cells. Type of experiment: cell-based. The protocol: (§5) Human 11β-HSD1 and 11β-HSD2 activities were assessed in intact stably transfected HEK-293 cells. Per well of a 96-well plate 30,000 cells were seeded, followed by growth for 24 h in steroid-free DMEM medium. The total volume was 30 μl and contained 100 nM of radiolabeled cortisol or cortisone as substrate and the corresponding inhibitor at a final concentration between 0-200 μM. The reaction was performed in steroid-free medium in the absence of exogenous cofactor for 1 to 3 h at 37° C. The solvent was below 0.1% (DMSO). Reactions were stopped by adding unlabeled cortisol and cortisone dissolved in methanol (2 mM final). Steroids were separated by TLC and conversion determined by scintillation counting.
as §2

Experiment [4] addresses T1, human 11β-HSD2. The experiment is described as follows: 11β-HSD2 activity in intact transfected HEK-293 cells. Type of experiment: cell-based. The conditions noted are these: read-out: IC50 for 11β-HSD2 (determined in intact transfected HEK-293 cells). The protocol: as §5, §2
For experiment [5], the target named is T2, human 11β-HSD1. The experiment can be described thus: 11β-HSD1 reductase activity (cortisone to cortisol) in lysates of stably transfected HEK-293 cells. Type of experiment: biochemical. The conditions noted are these: read-out: 11β-HSD1 % of control.

T2 sequence (P28845 whole entry): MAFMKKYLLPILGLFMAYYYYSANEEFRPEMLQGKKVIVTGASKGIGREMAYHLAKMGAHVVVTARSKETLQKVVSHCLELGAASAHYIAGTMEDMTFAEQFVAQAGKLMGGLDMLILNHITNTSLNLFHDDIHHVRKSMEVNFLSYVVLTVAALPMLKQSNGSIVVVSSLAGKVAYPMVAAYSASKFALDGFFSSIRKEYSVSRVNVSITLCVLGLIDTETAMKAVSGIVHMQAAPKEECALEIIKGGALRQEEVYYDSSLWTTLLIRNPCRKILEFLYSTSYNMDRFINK

As for `COc1ccc(CCNC(=O)C23CCC(C)(C(=O)C2=O)C3(C)C)cc1OC` (stereo not shown) [BNW7, 4,7,7-Trimethyl-2,3-dioxo-bicyclo[2.2.1]heptane-1-carboxylic acid [2-(3,4-dimethoxy-phenyl)-ethyl]-amide], the results for the “inhibition of 11β-HSD2 (in words)” value on human 11β-HSD2 [1] and against human 11β-HSD2 [1] (listed as 7) were “did not inhibit” and “no inhibition”, respectively. Moreover, the remaining activity at 20 µM is 140% on human 11β-HSD2 [1] and 9.6% on human 11β-HSD1 [2]. Moreover, the IC50 at human 11β-HSD1 [2] (cell lysates, 7 inhibitor concentrations at factor 2 intervals, experiment 1, read-out: IC 50 11β-HSD1, determination 1) was found to be 1950 nM; on human 11β-HSD1 [2] (cell lysates, 7 inhibitor concentrations at factor 2 intervals, experiment 2, read-out: IC 50 11β-HSD1, determination 2) it was 1910 nM; at human 11β-HSD1 [2] (cell lysates, 7 inhibitor concentrations at factor 2 intervals, experiment 3, read-out: IC 50 11β-HSD1, determination 3) it was 2240 nM; at human 11β-HSD1 [3] (11β-HSD1, intact HEK-293 cells, mean ± SD, read-out: IC50 in intact cells), 550 ± 50 nM. Further, the “inhibition of 17β-HSD2 (in words)” value against 17β-HSD2 was “did not inhibit”; at 17β-HSD2 (listed as 7) it was “no inhibition”. In addition, the “inhibition of 17β-HSD1 (in words)” value against 17β-HSD1 is recorded as “did not inhibit”; at 17β-HSD1 (listed as 7), “no inhibition”.
Take `CC(=O)OC1CC[C@]2(C)C3=C(C(=O)C[C@H]2C1(C)C)[C@]1(C)CCC(C(C)CCC(=O)O)[C@@]1(C)CC3=O` (stereo partly drawn) [BNW16, 4-((5R,10S,13R,14R)-3-Acetoxy-4,4,10,13,14-pentamethyl-7,11-dioxo-2,3,4,5,6,7,10,11,12,13,14,15,16,17-tetradecahydro-1H-cyclopenta[a]phenanthren-17-yl)-pentanoic acid]: the “inhibition of 11β-HSD2 (in words)” value against human 11β-HSD2 [1] is “no inhibition”. Besides, the remaining activity at 20 µM turned out to be 27.4% at human 11β-HSD2 [1] and 2.7% on human 11β-HSD1 [2]. The IC50 was determined as 4040 nM at human 11β-HSD2 [1] (experiment 2, read-out: IC 50 11β-HSD2, determination 2); 3870 nM on human 11β-HSD2 [1] (experiment 3, read-out: IC 50 11β-HSD2, determination 3); 149 nM at human 11β-HSD1 [2] (IC 50 11β-HSD1, determination 1); 168 nM at human 11β-HSD1 [2] (IC 50 11β-HSD1, determination 2); 114 nM against human 11β-HSD1 [2] (IC 50 11β-HSD1, determination 3); 28300 ± 5500 nM against 17β-HSD2. Further, the IC50 on human 11β-HSD2 [4] was greater than 50000 nM; at 17β-HSD1, greater than 30000 nM; against human 11β-HSD1 [3], 2320 ± 330 nM; at human 11β-HSD1 [3] (text b14, read-out: IC50 for 11β-HSD1 determined in intact transfected HEK-293 cells) it was 410 ± 80 nM. The “inhibition of 17β-HSD2 (in words)” value at 17β-HSD2 is recorded as “no inhibition”. The “inhibition of 17β-HSD1 (in words)” value against 17β-HSD1 is “no inhibition”.
In the case of `CC1(C)[C@@H](OC(=O)CCC(=O)O)CC[C@]2(C)[C@H]3C(=O)C=C4[C@@H]5C[C@@](C)(C(=O)O)CC[C@]5(C)CC[C@@]4(C)[C@]3(C)CC[C@@H]12` [CBX, carbenoxolone], on human 11β-HSD1 [5], the remaining activity at 10 µM came out at 4.4%.
